Results as given in article PMC8710297, “Identification of potent SENP1 inhibitors that inactivate SENP1/JAK2/STAT signaling pathway and overcome platinum drug resistance in ovarian cancer” (Clinical and Translational Medicine, 2021).

Biological target: T1, SENP1 (Homo sapiens, UniProt Q9P0U3)
T1 sequence (Q9P0U3 1-644): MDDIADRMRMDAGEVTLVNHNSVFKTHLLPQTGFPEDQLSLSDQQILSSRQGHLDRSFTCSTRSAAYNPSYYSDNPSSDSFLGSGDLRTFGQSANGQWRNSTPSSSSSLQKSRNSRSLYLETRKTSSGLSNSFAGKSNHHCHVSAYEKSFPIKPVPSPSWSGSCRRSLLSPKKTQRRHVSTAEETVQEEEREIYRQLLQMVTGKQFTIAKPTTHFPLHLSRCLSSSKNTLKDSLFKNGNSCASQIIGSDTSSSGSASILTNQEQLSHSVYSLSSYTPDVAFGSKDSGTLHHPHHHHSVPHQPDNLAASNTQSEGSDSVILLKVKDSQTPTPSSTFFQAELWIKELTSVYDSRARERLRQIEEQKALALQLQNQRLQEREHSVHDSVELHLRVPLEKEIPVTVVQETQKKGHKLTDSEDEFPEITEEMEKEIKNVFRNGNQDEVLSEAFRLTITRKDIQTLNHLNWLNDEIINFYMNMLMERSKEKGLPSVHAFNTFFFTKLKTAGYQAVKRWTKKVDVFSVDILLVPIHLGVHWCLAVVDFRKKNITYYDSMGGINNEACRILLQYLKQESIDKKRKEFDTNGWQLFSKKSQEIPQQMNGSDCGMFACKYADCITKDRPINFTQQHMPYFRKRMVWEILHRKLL
Assay: In vitro (cell-free) thermal shift assay
Assay type: binding
Parameters: made in house
Conditions: purified SENP1, 4 h, higher temperatures
Procedure: FIGURE 2 UA directly interacts with Sentrin‐specific protease 1 (SENP1). (A) Cellular thermal shift assay to examine the interaction of UA with SENP1. IGROV1 CR cells pretreated with MG132 (10 μM, 1 h) were incubated with DMSO or UA for 4 h before being shifted to indicated temperatures. SENP1 stability was analyzed by using Western blot against SENP1 antibody. Right panel, quantification of non‐denatured SENP1 fraction shown in the left panel. (B) Cell‐free thermal shift assay to examine interactions of UA with SENP1. Purified SENP1 proteins were incubated with DMSO or UA for 4 h before being shifted to the indicated temperatures. SENP1 stability was analyzed by using Western blot against SENP1 antibody. Right panel, quantification of non‐denatured SENP1 fraction shown in the left panel. (C) The predicted docking pose of UA (C: green; H: white; O: red) at the hydrophobic catalytic cleft of SENP1 (C: salmon; H: white; O: red; N: blue). Key amino acid residues were highlighted. […] Stability of SENP1(C603A) was analyzed by using Western blot against SENP1 antibody. […] Left; Ultra‐high performance liquid‐chromatography‐MS/MS analyses of associated UA in indicated samples, right; quantification of data shown in left (the binding affinity of UA with SENP1‐C603A was normalized as 1). […]
The qu anti ficatio n of immunohistochemical sta in ing wa s scored blindly at lea st by two independent obser vers. […]

thermal stabilization of recombinant SENP1 in vitro: stabilized
SMILES: C[C@H]1[C@H](C)CC[C@]2(C(=O)O)CC[C@]3(C)C(=CC[C@@H]4[C@@]5(C)CC[C@H](O)C(C)(C)[C@@H]5CC[C@]43C)[C@H]12 [UA, ursolic acid, reference compound]
